Test results published in a compilation of properties of binary mixtures (doi:10.1021/je500765m).

Experiment: xn = mol fraction of the nth substance listed
Conditions: 101 kPa, x2 = 0.0138

CCCC[n+]1ccn(C)c1.N#C[C-](C#N)C#N + O
Conditions	viscosity [mPa·s]
293.15 K	32.77
298.15 K	26.47
303.15 K	21.7
308.15 K	18.08
313.15 K	15.3
318.15 K	13.09
323.15 K	11.32
338.15 K	7.748
343.15 K	6.933
353.15 K	5.658
358.15 K	5.155
363.15 K	4.718
